Reference: patent publication US7439251B2, “Methods and compositions for treatment of central and peripheral nervous system disorders and novel compounds useful therefor” (Israel Institute for Biological Research, priority 2002, dated 2008)
Entries after “also recorded” stand apart in the source; their conditions may differ. Read-outs that look alike come from different tables or passages of the source.

Assays:
[1] = rat, in vivo, po
Method: This calculation was based on the brain weight (2 gr) vs. total plasma volume (14 ml).

[2] = system: GSK-3β; assay: GSK-3β activity in rat hippocampal neurons; type: cell-based; details: 10 μM with Aβ fibrils 10 μM (fibrils alone 370%)
Method: (§1) This study was performed in rat hippocampal primary cell cultures using the methods described by Garrido J L et al. (FASEB J 2002; 16:1982).

[3] = Chronic oral toxicity up to 13 weeks, dog
[4] = pKa and free base fraction at CSF pH; details: pH 7.35 (CSF), calculated from pKa
Method: For such compounds at the relevant pH of 7.35, only 2.2% are in non-ionized form. […] This calculation was based on the brain weight (2 gr) vs. total plasma volume (14 ml).

[5] = system: β-catenin; assay: β-catenin levels in rat hippocampal neurons; type: cell-based; details: 100 μM; Aβ1-40 5 μM
Method: as §1

[6] = system: rat hippocampal neurons; assay: Survival, morphology and apoptosis of rat hippocampal neurons exposed to Aβ; type: cell-based
Method: as §1

[7] = Aging microcebes, chronic treatment; type: in vivo; details: chronic treatment for 18 months
From the text: Aging microcebes show similar cognitive deficits and cerebral lesions to those observed in aging humans and in AD patients. Thus this is a good animal model for AD, […] major hallmarks in AD {plaques (Aβ), paired helical filaments (hyperphophorylated and aggregated τ) and cognitive dysfunction}.

[8] = Stability of 10% w/w AF150(S) in paraffin oil; type: physicochemical
Method: In another embodiment of the invention, AF150(S) is provided in pharmaceutical acceptable paraffin oil. […] Ph) was examined at 40° C. under air or nitrogen atmosphere, in the presence or absence tocopherol. Samples were analyzed after two months storage. TLC, […] and GC were used to detect and determine the quantity of possible degradation product(s). Color changes were determined in comparison with Paraffin oil with or without tocopherol under the same conditions. AF150(S) was stable in the paraffin oil formulation.

[9] = system: ApoE; assay: ApoE synthesis and secretion in rat primary type 1 astrocytes; type: cell-based; details: 96 hrs; 0.1 nM
Method: Primary cultures of type 1 astrocytes were derived from the cortex of Sprague Dawley rats. The compounds tested were dissolved in the culture media and added to cells for 24, 48, 72 and 96 hrs. Media was then removed and kept frozen until ApoE protein levels were evaluated by immunoblot analysis as described in Poirier et al Neuroscience 55: 81-90 (1993).

[10] = target: CPY2D6 (Homo sapiens, UniProt P10635); assay: P450 inhibition, microtiter plate; type: in vitro ADME; details: up to 10 μM
Method: (§2) Cytochrome P450 activity can be an indicator for potential drug-drug interactions. AF292 was evaluated in a microtiter plate assay for P450 inhibition.

[11] = target: CYP1A2 (Homo sapiens, UniProt P05177); assay: P450 inhibition, microtiter plate; type: in vitro ADME; details: up to 10 μM
Method: as §2

[12] = target: CYP2C9 (Homo sapiens, UniProt P11712); assay: P450 inhibition, microtiter plate; type: in vitro ADME; details: up to 10 μM
Method: as §2

[13] = target: CYP2C19 (Homo sapiens, UniProt P33261); assay: P450 inhibition, microtiter plate; type: in vitro ADME; details: up to 10 μM
Method: as §2

[14] = target: CYP3A4 (Homo sapiens, UniProt P08684); assay: P450 inhibition, microtiter plate; type: in vitro ADME; details: up to 10 μM
Method: as §2

[15] = target: T1, human M5 receptor (Homo sapiens, UniProt P08912); assay: PI hydrolysis, human M5; type: cell-based
T1 construct: expressed in transfected cells

[16] = system: Isolated Guinea Pig Right Atrium; assay: Isolated guinea pig right atrium
Method: (§3) • 1. Astemizole (human ether-a-go-go related gene (HERG) Channel) Binding Assay. […] Isolated Guinea Pig Right Atrium (atrial fibrillation). […] Effects of AF292 (dose 5 mg/kg orally) on cardiac electrophysiological, cardio-haemodynamic in instrumented, awake dogs. Healthy trained and chronically instrumented female Beagle dogs of varying age and ranging in body weight from 9.4 to 12 kg, were used for recording of the cardiovascular parameters: heart rate, diastolic and systolic blood pressure, pressure rate product, LV dp/dt max, LV dp/dt max/pd, LV dp/dt min, cardiac output, stroke volume, systemic vascular resistance and the ECG parameters (PQ-, QRS-, QT-, QTcBazett—(QTcB), QTcFridericia—(QTcF) and QTcVan de Water—(QTcVdW) interval duration and QT-dispersion. During the last 18 hours prior to the experiments, the dogs had no access to food. Water was available ad libitum. At the beginning of each experiment, control values of the various parameters were recorded for at least 30 min. Thereafter, 5 mg/kg of AF292 (n=4) or the corresponding volume of the solvent (n=4) was administered orally by gavage. The various haemodynamic parameters were recorded continuously for 4 hours thereafter.

[17] = Cardiac electrophysiology and haemodynamics in instrumented awake dogs; type: in vivo, Beagle dog; details: 5 mg/kg orally, 4 hours
Method: as §3

[18] = target: T1, human M5 receptor; assay: Arachidonic acid (AA) release, human M5; type: cell-based
[19] = target: M2 mAChR (Homo sapiens, UniProt P08172); assay: Intracellular Ca ions in modified cell cultures, M2; type: cell-based; details: 10^−9-10^−3M
[20] = system: adenosine A1, A2A, A3; alpha 1, alpha 2, beta 1; AT1; BZD; B2; CCKA; D1, D2S; ETA; GABA; GAL2; IL-8B; CCR1; H1, H2; MC4; ML1; NK2, NK3; Y1, Y2; NT1; opiate …; assay: Selectivity binding panel for AF292; details: 10 μM
[21] = system: Human α-glycoprotein (AGP); assay: Protein binding, human α-glycoprotein; type: in vitro ADME; details: 10 μM
Method: Protein binding studies were carried out in human plasma, α1-glycoprotein, human serum […] (HSA), and Dulbecco's Phosphate Buffered Saline (PBS). AF292 was added to a final concentration of 10 μM. […] (μM) and in human α-glycoprotein (AGP), (see Table 1).

T1 sequence (P08912 whole entry): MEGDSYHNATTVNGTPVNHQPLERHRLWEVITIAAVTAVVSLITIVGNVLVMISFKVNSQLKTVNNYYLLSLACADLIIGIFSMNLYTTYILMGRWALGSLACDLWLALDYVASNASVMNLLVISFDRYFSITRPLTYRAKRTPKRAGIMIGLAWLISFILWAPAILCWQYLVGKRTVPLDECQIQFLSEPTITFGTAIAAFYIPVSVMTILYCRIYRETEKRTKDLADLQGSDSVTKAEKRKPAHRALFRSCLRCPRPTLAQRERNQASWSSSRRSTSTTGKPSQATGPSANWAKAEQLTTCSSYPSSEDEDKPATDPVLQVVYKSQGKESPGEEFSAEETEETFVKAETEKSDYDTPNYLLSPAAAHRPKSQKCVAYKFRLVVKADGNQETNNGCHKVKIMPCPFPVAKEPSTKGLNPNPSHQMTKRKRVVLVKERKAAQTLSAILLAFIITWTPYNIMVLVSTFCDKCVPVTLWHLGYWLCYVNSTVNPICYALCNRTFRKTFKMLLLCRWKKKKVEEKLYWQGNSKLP
Chain of M2 mAChR (P08172 whole entry): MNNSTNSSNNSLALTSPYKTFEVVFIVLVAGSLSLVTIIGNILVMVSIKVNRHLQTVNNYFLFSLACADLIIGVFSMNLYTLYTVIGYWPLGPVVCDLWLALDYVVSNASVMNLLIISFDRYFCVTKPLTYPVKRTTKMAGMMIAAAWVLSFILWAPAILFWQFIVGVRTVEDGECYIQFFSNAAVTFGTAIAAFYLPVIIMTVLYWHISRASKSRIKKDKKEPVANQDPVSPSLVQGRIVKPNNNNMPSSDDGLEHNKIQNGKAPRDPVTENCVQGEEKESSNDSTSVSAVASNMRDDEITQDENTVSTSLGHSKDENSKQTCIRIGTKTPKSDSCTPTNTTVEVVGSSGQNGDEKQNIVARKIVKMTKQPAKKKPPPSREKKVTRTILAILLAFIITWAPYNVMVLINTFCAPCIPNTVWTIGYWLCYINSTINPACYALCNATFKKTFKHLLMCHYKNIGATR
Chain of CYP3A4 (P08684 whole entry): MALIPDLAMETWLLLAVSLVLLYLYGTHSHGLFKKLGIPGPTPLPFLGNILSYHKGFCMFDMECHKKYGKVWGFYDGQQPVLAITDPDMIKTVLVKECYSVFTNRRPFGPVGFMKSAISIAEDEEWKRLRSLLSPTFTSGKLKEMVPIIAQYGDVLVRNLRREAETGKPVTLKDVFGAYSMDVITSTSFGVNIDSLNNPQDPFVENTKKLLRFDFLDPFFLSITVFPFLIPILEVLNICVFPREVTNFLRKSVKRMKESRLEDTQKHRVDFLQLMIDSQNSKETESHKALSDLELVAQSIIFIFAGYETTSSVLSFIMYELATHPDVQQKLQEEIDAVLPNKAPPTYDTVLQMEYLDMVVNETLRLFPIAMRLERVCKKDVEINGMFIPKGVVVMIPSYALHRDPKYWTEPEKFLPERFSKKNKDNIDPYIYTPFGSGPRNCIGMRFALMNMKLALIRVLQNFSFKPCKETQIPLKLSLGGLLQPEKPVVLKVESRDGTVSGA
Chain of CYP2C9 (P11712 whole entry): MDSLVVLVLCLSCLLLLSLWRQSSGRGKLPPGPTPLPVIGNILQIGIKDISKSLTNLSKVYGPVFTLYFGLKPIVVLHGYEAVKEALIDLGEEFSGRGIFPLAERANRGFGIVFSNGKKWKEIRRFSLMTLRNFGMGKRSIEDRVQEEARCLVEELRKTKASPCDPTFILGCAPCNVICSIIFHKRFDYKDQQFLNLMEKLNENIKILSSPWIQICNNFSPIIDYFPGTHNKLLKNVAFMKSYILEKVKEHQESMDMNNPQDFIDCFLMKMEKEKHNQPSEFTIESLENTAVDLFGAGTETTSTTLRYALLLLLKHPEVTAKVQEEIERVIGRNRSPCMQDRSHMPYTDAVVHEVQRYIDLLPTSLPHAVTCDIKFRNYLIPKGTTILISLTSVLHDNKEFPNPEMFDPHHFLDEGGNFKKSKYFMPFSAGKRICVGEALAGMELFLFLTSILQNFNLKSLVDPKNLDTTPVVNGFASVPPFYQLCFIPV
Chain of CYP1A2 (P05177 whole entry): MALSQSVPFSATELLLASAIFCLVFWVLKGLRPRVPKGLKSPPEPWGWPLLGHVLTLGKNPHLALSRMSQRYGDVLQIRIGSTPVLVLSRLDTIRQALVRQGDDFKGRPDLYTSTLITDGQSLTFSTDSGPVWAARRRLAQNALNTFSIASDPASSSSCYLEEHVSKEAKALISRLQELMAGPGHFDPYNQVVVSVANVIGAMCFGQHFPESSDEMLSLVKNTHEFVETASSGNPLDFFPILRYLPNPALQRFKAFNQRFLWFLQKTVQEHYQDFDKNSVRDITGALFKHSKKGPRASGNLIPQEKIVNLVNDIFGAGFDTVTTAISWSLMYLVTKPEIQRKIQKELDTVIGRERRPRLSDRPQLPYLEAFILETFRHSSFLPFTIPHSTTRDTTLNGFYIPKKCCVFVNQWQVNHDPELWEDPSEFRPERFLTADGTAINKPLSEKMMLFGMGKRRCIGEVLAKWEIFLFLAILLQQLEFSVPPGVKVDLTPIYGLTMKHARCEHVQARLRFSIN
Chain of CPY2D6 (P10635 whole entry): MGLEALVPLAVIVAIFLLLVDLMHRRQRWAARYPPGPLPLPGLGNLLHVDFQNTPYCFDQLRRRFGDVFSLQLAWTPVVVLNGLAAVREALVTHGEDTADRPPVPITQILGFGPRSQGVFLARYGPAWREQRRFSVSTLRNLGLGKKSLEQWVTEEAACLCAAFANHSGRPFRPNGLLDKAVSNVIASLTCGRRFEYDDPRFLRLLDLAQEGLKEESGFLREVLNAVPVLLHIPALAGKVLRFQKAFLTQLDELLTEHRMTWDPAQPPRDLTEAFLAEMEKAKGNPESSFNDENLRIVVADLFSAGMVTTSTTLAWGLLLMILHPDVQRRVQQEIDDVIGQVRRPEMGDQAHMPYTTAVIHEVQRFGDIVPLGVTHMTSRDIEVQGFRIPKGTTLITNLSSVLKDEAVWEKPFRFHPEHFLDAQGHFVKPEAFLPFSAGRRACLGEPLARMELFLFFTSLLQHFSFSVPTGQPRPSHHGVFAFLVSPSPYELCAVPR
Chain of CYP2C19 (P33261 whole entry): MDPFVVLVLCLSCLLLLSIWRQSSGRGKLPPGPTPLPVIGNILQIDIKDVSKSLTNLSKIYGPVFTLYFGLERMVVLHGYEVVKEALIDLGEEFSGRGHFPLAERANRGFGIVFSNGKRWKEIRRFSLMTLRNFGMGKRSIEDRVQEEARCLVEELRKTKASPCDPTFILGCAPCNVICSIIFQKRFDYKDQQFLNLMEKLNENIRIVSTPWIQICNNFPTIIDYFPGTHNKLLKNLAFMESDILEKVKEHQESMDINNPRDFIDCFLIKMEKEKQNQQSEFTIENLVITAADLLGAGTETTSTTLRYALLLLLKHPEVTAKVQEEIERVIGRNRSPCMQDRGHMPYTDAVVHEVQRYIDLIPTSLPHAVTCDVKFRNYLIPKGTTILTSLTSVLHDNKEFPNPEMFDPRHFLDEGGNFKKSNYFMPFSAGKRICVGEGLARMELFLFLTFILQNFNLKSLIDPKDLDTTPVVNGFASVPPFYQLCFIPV

CC[C@@H]1SC2(CCN(C)CC2)NC1=O [AF267B, (S)-2-ethyl-8-methyl-1-thia-4,8-diaza-spiro[4.5]decan-3-one]
% of the compound found in the brain (Cmax brain/Cmax plasma) ([1]; female): 16%
% of the compound found in the brain (Cmax brain/Cmax plasma) ([1]; male): 25%
GSK-3β activity vs. control (100%) [2]: 150%
ECG (heart rate, P wave, P-Q, QRS, QT) ([3]; beagle dogs, oral, up to 13 weeks): no changes in the ECG
dose at which (muscarinic) effects are seen ([3]; dog): > 9 mg/kg
no-adverse-effect-level (NOAEL) ([3]; dog, po, up to 13 weeks): 6 to 9 mg/kg/day
% of the compound in free base form [4]: 26.2%
Aβ1-40-induced degradation of soluble β-catenin [5]: prevented
survival and morphology of hippocampal neurons ([6]; 0.5-50 μM, compound alone): does not affect the survival and morphology
neurites / dendritic shrinkage induced by Aβ1-40 ([6]; blocked by pirenzepine 10 nM): protected the neurons

CC1=NCC2(CCN(C)CC2)S1 [AF150(S), 2,8-Dimethyl-1-thia-3,8-diaza-spiro[4.5]dec-2-ene]
astrogliosis and inflammation [7]: decreased astrogliosis and inflammation
cognitive and behavioral impairments [7]: improved the cognitive and behavioral impairments
hyperphosphorylated τ proteins, neurons with aggregated τ, paired helical filaments [7]: decreased hyperphosphorylated τ proteins
Stability in the paraffin oil formulation ([8]; 40° C., two months): stable
Color change ([8]; samples containing 0.5% w/w tocopherol): color was not developed
Color change ([8]; samples without tocopherol): slight yellow color
inhibition of ApoE production [9]: to a lesser extent

CC[C@@H]1SC2(CCNCC2)NC1=O [AF292, (S)-2-Ethyl-1-thia-4,8-diaza-spiro[4.5]decan-3-one]
P450 inhibition [10]: did not induce significant
P450 inhibition [11]: did not induce significant
P450 inhibition [12]: did not induce significant
P450 inhibition [13]: did not induce significant
P450 inhibition [14]: did not induce significant
PI turnover, agonist activity [15]: PI, AA: M5 mAChR - no effect as agonist
contractile force [16]: no significant effect
contractile rate ([16]; vs vehicle group): tended to slightly reduce
hemodynamic or ECG parameters [17]: no statistically significant and relevant effect
AA release, agonist activity [18]: inactive as an agonist; also recorded: PI, AA: M5 mAChR - no effect as agonist
agonist activity at M2 mAChR [19]: inactive as an agonist; also recorded: M2 mAChR - no effects as agonist
binding to other receptors, channels and transporter [20]: no binding at all
Protein Binding [21]: Human α-glycoprotein (AGP) = 0%
